The record followed here is patent US20140073651A1, “BENZAMIDE DERIVATIVES AS P2X7 RECEPTOR ANTAGONISTS” (Actelion Pharmaceuticals Ltd., priority 2011, published 2014).

Broadly, the IC50 is the concentration needed to halve the response being measured.

For the experiment, the target named is T1, human recombinant P2X7 receptor (Homo sapiens, UniProt Q99572).
T1 construct: expressed in transfected cells
T1 sequence (Q99572 1-595): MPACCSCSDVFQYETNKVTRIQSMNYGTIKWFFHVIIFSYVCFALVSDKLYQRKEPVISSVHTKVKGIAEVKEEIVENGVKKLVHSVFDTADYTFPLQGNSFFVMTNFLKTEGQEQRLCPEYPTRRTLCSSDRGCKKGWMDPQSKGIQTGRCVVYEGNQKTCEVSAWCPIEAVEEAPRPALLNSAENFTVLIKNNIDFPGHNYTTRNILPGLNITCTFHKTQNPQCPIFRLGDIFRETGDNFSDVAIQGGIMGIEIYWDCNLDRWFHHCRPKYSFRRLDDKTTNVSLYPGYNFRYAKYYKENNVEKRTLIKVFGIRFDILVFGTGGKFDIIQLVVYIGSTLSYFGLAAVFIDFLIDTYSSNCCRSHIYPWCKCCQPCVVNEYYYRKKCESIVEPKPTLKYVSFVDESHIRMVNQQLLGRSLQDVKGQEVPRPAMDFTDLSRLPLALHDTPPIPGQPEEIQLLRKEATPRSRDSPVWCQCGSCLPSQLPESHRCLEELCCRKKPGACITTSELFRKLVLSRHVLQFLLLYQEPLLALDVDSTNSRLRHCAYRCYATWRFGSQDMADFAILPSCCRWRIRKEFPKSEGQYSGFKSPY
As to the kind of experiment: YO-PRO assay (YO-PRO-1 uptake) in HEK cells stably expressing P2X7. As to conditions: HEK-293 cells expressing human recombinant P2X7 receptor; ATP 250 μM, 90 minutes; YO-PRO-1 fluorescence (FLIPR tetra); read-out: IC50 (antagonistic activity with respect to the P2X7 receptor). The experiment is classed as cell-based. In short, it runs like this: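 Antagonist serially diluted (duplicates) on P2X7-expressing HEK cells in buffer with 0.5 μM YO-PRO-1; dye uptake followed on FLIPR Tetra over four time points. IC50 from maximum fluorescence intensity versus compound concentration.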
`O=C(NCC1(O)CCCCC1)c1cc(Oc2cccc(F)n2)ccc1Cl` [Example 102, 2-Chloro-5-(6-fluoro-pyridin-2-yloxy)-N-(1-hydroxy-cyclohexylmethyl)-benzamide]: the IC50 was 0.037 µM.

Take `O=C(NCC1(O)CCCCC1)c1cc(Oc2cc(F)ccn2)ccc1Cl` [Example 103, 2-Chloro-5-(4-fluoro-pyridin-2-yloxy)-N-(1-hydroxy-cyclohexylmethyl)-benzamide]: the half-maximal inhibitory concentration (IC50) came to 0.046 µM. `O=C(NCC1(O)CCCCC1)c1cc(Oc2ccnc(Cl)c2)ccc1Cl` [Example 104, 2-Chloro-5-(2-chloro-pyridin-4-yloxy)-N-(1-hydroxy-cyclohexylmethyl)-benzamide]: the IC50 was determined as 0.1 µM. Consider `O=C(NCC1(O)CCCCC1)c1cc(Oc2ccccn2)ccc1Cl` [Example 105, 2-Chloro-N-(1-hydroxy-cyclohexylmethyl)-5-(pyridin-2-yloxy)-benzamide], for which the IC50 was found to be 0.047 µM. Under `O=C(NCC1(O)CCCCC1)c1cc(Oc2ccncc2)ccc1Cl` [Example 106, 2-Chloro-N-(1-hydroxy-cyclohexylmethyl)-5-(pyridin-4-yloxy)-benzamide] stands 1.72 µM; under `O=C(NCC1(O)CCCCC1)c1cc(Oc2cccnc2)ccc1Cl` [Example 107, 2-Chloro-N-(1-hydroxy-cyclohexylmethyl)-5-(pyridin-3-yloxy)-benzamide], 0.07 µM; under `O=C(NCC1(O)CCCCC1)c1cc(Oc2cccc(Cl)n2)ccc1Cl` [Example 108, 2-Chloro-5-(6-chloro-pyridin-2-yloxy)-N-(1-hydroxy-cyclohexylmethyl)-benzamide], 0.064 µM. For the molecule `CNc1cccc(Oc2ccc(Cl)c(C(=O)NCC3(O)CCCCC3)c2)n1` [Example 109, 2-Chloro-N-(1-hydroxy-cyclohexylmethyl)-5-(6-methylamino-pyridin-2-yloxy)-benzamide], the IC50 is 0.053 µM.

With `CN(C)c1cccc(Oc2ccc(Cl)c(C(=O)NCC3(O)CCCCC3)c2)n1` [Example 110, 2-Chloro-5-(6-dimethylamino-pyridin-2-yloxy)-N-(1-hydroxy-cyclohexylmethyl)-benzamide], the 50% inhibitory concentration (IC50) was found to be 0.122 µM. Under `COc1cccc(Oc2ccc(Cl)c(C(=O)NCC3(O)CCCCC3)c2)n1` [Example 111, 2-Chloro-N-(1-hydroxy-cyclohexylmethyl)-5-(6-methoxy-pyridin-2-yloxy)-benzamide] stands 0.021 µM; under `O=C(NCC1(O)CCCCC1)c1cc(Oc2cccc(=O)[nH]2)ccc1Cl` [Example 112, 2-Chloro-N-(1-hydroxy-cyclohexylmethyl)-5-(6-oxo-1,6-dihydro-pyridin-2-yloxy)-benzamide], 0.043 µM; under `Cn1c(Oc2ccc(Cl)c(C(=O)NCC3(O)CCCCC3)c2)cccc1=O` [Example 113, 2-Chloro-N-(1-hydroxy-cyclohexylmethyl)-5-(1-methyl-6-oxo-1,6-dihydro-pyridin-2-yloxy)-benzamide], 0.096 µM. With `O=C(NCC1(O)CCCCC1)c1cc(Oc2ccncn2)ccc1Cl` [Example 114, 2-Chloro-N-(1-hydroxy-cyclohexylmethyl)-5-(pyrimidin-4-yloxy)-benzamide] the figure was 0.1 µM; with `O=C(NCC1(O)CCCCC1)c1cc(Oc2ccnc(Cl)n2)ccc1Cl` [Example 115, 2-Chloro-5-(2-chloro-pyrimidin-4-yloxy)-N-(1-hydroxy-cyclohexylmethyl)-benzamide], 0.191 µM; with `CNc1nccc(Oc2ccc(Cl)c(C(=O)NCC3(O)CCCCC3)c2)n1` [Example 116, 2-Chloro-N-(1-hydroxy-cyclohexylmethyl)-5-(2-methylamino-pyrimidin-4-yloxy)-benzamide], 0.172 µM. Turning to `CN(C)c1nccc(Oc2ccc(Cl)c(C(=O)NCC3(O)CCCCC3)c2)n1` [Example 117, 2-Chloro-5-(2-dimethylamino-pyrimidin-4-yloxy)-N-(1-hydroxy-cyclohexylmethyl)-benzamide], the concentration for half-maximal inhibition (IC50) worked out at 0.427 µM. For the molecule `O=C(NCC1(O)CCC(F)(F)CC1)c1cc(Oc2cc[nH]c(=O)n2)ccc1Cl` [Example 118, 2-Chloro-N-(4,4-difluoro-1-hydroxy-cyclohexylmethyl)-5-(2-oxo-1,2-dihydro-pyrimidin-4-yloxy)-benzamide], the IC50 is 0.014 µM.

Consider `O=C(NCC1(O)CCCCC1)c1cc(Oc2ccnc(=O)[nH]2)ccc1Cl` [Example 119, 2-Chloro-N-(1-hydroxy-cyclohexylmethyl)-5-(2-oxo-2,3-dihydro-pyrimidin-4-yloxy)-benzamide], for which the IC50 amounted to 0.796 µM. Turning to `COc1nccc(Oc2ccc(Cl)c(C(=O)NCC3(O)CCCCC3)c2)n1` [Example 120, 2-Chloro-N-(1-hydroxy-cyclohexylmethyl)-5-(2-methoxy-pyrimidin-4-yloxy)-benzamide], the IC50 worked out at 0.111 µM. `O=C(NCC1(O)CCCCC1)c1cc(Oc2cnccn2)ccc1Cl` [Example 121, 2-Chloro-N-(1-hydroxy-cyclohexylmethyl)-5-(pyrazin-2-yloxy)-benzamide]: the IC50 was found to be 0.093 µM. For the molecule `O=C(NCC1(O)CCCCC1)c1cc(Oc2cncc(Cl)n2)ccc1Cl` [Example 122, 2-Chloro-5-(6-chloro-pyrazin-2-yloxy)-N-(1-hydroxy-cyclohexylmethyl)-benzamide], the 50% inhibitory concentration (IC50) was 0.101 µM. With `COc1cncc(Oc2ccc(Cl)c(C(=O)NCC3(O)CCCCC3)c2)n1` [Example 123, 2-Chloro-N-(1-hydroxy-cyclohexylmethyl)-5-(6-methoxy-pyrazin-2-yloxy)-benzamide] the figure was 0.123 µM; with `CNc1cncc(Oc2ccc(Cl)c(C(=O)NCC3(O)CCCCC3)c2)n1` [Example 124, 2-Chloro-N-(1-hydroxy-cyclohexylmethyl)-5-(6-methylamino-pyrazin-2-yloxy)-benzamide], 0.163 µM; with `CN(C)c1cncc(Oc2ccc(Cl)c(C(=O)NCC3(O)CCCCC3)c2)n1` [Example 125, 2-Chloro-5-(6-dimethylamino-pyrazin-2-yloxy)-N-(1-hydroxy-cyclohexylmethyl)-benzamide], 0.504 µM. Under `O=C(NCC1(O)CCCCC1)c1cc(Oc2cncc(=O)[nH]2)ccc1Cl` [Example 126, 2-Chloro-N-(1-hydroxy-cyclohexylmethyl)-5-(6-oxo-1,6-dihydro-pyrazin-2-yloxy)-benzamide] stands 0.461 µM; under `O=C(NCC1(O)CCCCC1)c1cc(Oc2ccc(Cl)nn2)ccc1Cl` [Example 127, 2-Chloro-5-(6-chloro-pyridazin-3-yloxy)-N-(1-hydroxy-cyclohexylmethyl)-benzamide], 0.058 µM; under `COc1ccc(Oc2ccc(Cl)c(C(=O)NCC3(O)CCCCC3)c2)nn1` [Example 128, 2-Chloro-N-(1-hydroxy-cyclohexylmethyl)-5-(6-methoxy-pyridazin-3-yloxy)-benzamide], 0.03 µM. With `O=C(NCC1(O)CCCCC1)c1cc(Oc2ccc(=O)[nH]n2)ccc1Cl` [Example 129, 2-Chloro-N-(1-hydroxy-cyclohexylmethyl)-5-(6-oxo-1,6-dihydro-pyridazin-3-yloxy)-benzamide] the figure was 0.08 µM; with `O=C(NCC1(O)CCCCC1)c1cc(Oc2cccnn2)ccc1Cl` [Example 130, 2-Chloro-N-(1-hydroxy-cyclohexylmethyl)-5-(pyridazin-3-yloxy)-benzamide], 0.067 µM; with `COc1cnnc(Oc2ccc(Cl)c(C(=O)NCC3(O)CCCCC3)c2)c1` [Example 131, 2-Chloro-N-(1-hydroxy-cyclohexylmethyl)-5-(5-methoxy-pyridazin-3-yloxy)-benzamide], 0.206 µM. On to `O=C(NCC1(O)CCCCC1)c1cc(Sc2ccccn2)ccc1Cl` [Example 132, 2-Chloro-N-(1-hydroxy-cyclohexylmethyl)-5-(pyridin-2-ylsulfanyl)-benzamide], for which the IC50 turned out to be 0.046 µM. With `O=C(NCC1(O)CCCCC1)c1cc(S(=O)(=O)c2ccccn2)ccc1Cl` [Example 134, 2-Chloro-N-(1-hydroxy-cyclohexylmethyl)-5-(pyridine-2-sulfonyl)-benzamide] the figure was 0.105 µM; with `O=C(NCC1(O)CCCCC1)c1cc(Sc2ccnc(Cl)n2)ccc1Cl` [Example 135, 2-Chloro-5-(2-chloro-pyrimidin-4-ylsulfanyl)-N-(1-hydroxy-cyclohexylmethyl)-benzamide], 0.266 µM.

Turning to `O=C(NCC1(O)CCCCC1)c1cc(Sc2cc[nH]c(=O)n2)ccc1Cl` [Example 137, 2-Chloro-N-(1-hydroxy-cyclohexylmethyl)-5-(2-oxo-1,2-dihydro-pyrimidin-4-ylsulfanyl)-benzamide], the IC50 was 0.0081 µM. On to `O=C(NCC1(O)CCC(F)(F)CC1)c1cc(Sc2cc[nH]c(=O)n2)ccc1Cl` [Example 138, 2-Chloro-N-(4,4-difluoro-1-hydroxy-cyclohexylmethyl)-5-(2-oxo-1,2-dihydro-pyrimidin-4-ylsulfanyl)-benzamide], for which the IC50 came out at 0.01 µM. As to `COc1nccc(Sc2ccc(Cl)c(C(=O)NCC3(O)CCCCC3)c2)n1` [Example 139, 2-Chloro-N-(1-hydroxy-cyclohexylmethyl)-5-(2-methoxy-pyrimidin-4-ylsulfanyl)-benzamide], the IC50 turned out to be 0.074 µM.
